US20230413879A1, “FOOD COMPRISING ISOSTEVIOL AND USES THEREOF” (ISOFIRMS APS, priority 2020, published 2023)
“Also recorded” adds a separate entry of the source.

Legend:
pigs [1] = assay: Meat (muscle) percentage at slaughter, ultrasound Autoform (Example 5); type: in vivo, pig (Danish Landrace); settings: FIG. 5-6
Description: See also previous examples.
Meat percentage is measured when the pig is dead. The body is prepared and send to an automatic equipment that measures fat/meat thicknesses based on ultrasound measurements called an Autoform. The equipment is certified by third party and the meat percentages in this study was performed by Tican A/S at the slaughterhouse in Brdrup.
Increased meat (muscle) percentage can also be considered to correspond to an increased muscle/fat ratio.

piglets [2] = assay: Larger pig trial: body weight / weight gain (Example 8); type: in vivo, pig (DanBred x Duroc); settings: for weight gain versus negative control: week 3-6 and week 1-6 / 42 days trial; for Body weight [kg] Mean SD 0 / Body weight [kg] Median SD 0: baseline
Text: (§1) Trial with 360 barrows and female piglets (DanBred×Duroc; initial BW of about 6.8 kg).
(§2) Age when trial started approx. 7 days and trial ended after 42 days. They weighed approx. 7 kg initially and have been feed as per normal conventional diet for piglets until delivery.
(§3) Basal diets as per standard industry feed: • Prestarter diet for post-weaning piglets: 7.0 to 9.0 kg BW • Starter diet for piglets: 9.0 to 15.0 kg BW • Grower diet for piglets: 15.0 to 30.0-35.0 kg BW.
(§4) Isosteviol >97% was produced in-house. Isosteviol may be produced by acid-catalysed extraction of Stevia rebaudiana L. Preferably at a pH below 5.5.
(§5) • Negative control: No isosteviol • Treatment 1 (IS10): 1% isosteviol mg/kg Bodyweight (BW) • Treatment 2 (IS13): 1.3% isosteviol mg/kg Bodyweight (BW)
(§6) The pigs were fed standard diets supplemented with Isosteviol as outlined above.
(§7) IsoSteviol Premix 0.71% was produced in Vilofoss Premix factory, and included at 0.29/0.37, 0.25/0.33% (by weight) in complete feed to reach 1/1.3 mg IsoSteviol/kg BW (bodyweight).
(§8) The piglets were randomly distributed in 10 pigsties per treatment when trial started. Food and water were provided ad libitum. The farmer was not aware of which groups received which additional feed, since all feeds were masked to look the same and the control group received a bag similar to the other groups.

pigs [3] = assay: Stool firmness / diarrhea in pigs (Example 4); type: in vivo, pig (Danish Landrace); settings: groups receiving isosteviol (IPG and IG) compared to control groups (CG and CPG)
pigs [4] = assay: Turnover rate: days to grow pigs from approx. 30 kg to around 118 kg (Example 6); type: in vivo, pig (Danish Landrace)
Text: See also previous examples. Turnover rates of the pigs was defined by the time (days) it takes to grow the pigs from approx. 30 kg to around 118 kg. Thus, turnover time is the time it takes to grow the pigs from approx. 30kg to their optimum slaughter weight. The faster the turnover rate is, the faster the pigs goes through the process and consequently this is the determination factor on how many pigs the farmer can deliver to the slaughterhouse within a year.

pigs [5] = assay: Pig feeding trial: growth rate / weight gain (Example 2); type: in vivo, pig (Danish Landrace); settings: for Average weight (kg) start: baseline; for Net growth vs. CG group / Net growth vs. CPG group: index; for Net growth vs. CG group: CG = 100; for Net growth vs. CPG group: CPG = 100; for Average weight (kg) Increase: start to week 8
Text: Isosteviol in 97% purity was produced in-house. Isosteviol may be produced by acid-catalysed extraction of Stevia rebaudiana L. Preferably at a pH below 5.5.
The pigs were of the type Danish Landrace Age approx. 90 days, gender equally distributed. They weighted approximately 30 kg when delivered and had been fed with a normal conventional diet for piglets until delivery.
• Standard feed is home-blended by the farmer with the ratio: Wheat 55 w %, Barley 35 w %, Rye 10 w %. • Nutritional profile/100 g: • Nutritional content: 1313 KJ • Fat: 1.8 g • Carbohydrate: 68.9 g • Of which sugar: 1.4 g • Fibres: 15.8 g • Protein: 12.8 g • Supplementary feed: The Supplementary feed was distributed as a “Semi Soja 1920” composition (from DLG), which is a supplementary feed high in protein, carbohydrate, and free amino acids.
as §8, with “pigs” for “piglets”, “the five” for “10”, “pigsties” for “pigsties per treatment”, “libitum (see Table 2).” for “libitum.”, “CG” for “control”
Every other week the pigs were weighed, and their growth were noted. The pigs were attended too equally.
Timeframe: Trial started after delivery of the 30 kg pigs and was planned to end when the pigs weighed around 115-118 kg, the weight at trial-end was however around 120 kg (11 weeks). Total time for production is 72 days.
The food intake by each pig during the trial is described in Table 3.

pigs [6] = assay: Overall uptake of feed judged by generated manure and stool analysis (Example 3); type: in vivo, pig (Danish Landrace)
Description: See example 1. Overall uptake of feed was determined by the amount of generated manure by the different groups.

piglets [7] = assay: Larger pig trial: feed conversion ratio (FCR) (Example 8); type: in vivo, pig (DanBred x Duroc); settings: for Feed conversion ratio (FCR) versus negative control: 42 days trial
Text: In this regard, the food/feed conversion ratio (FCR) is defined as the ratio between the amount of food eaten by an animal to the output produced by the animal (e.g. amount of meat produced by a pig, amount of milk produced by a cow etc.). Food that is efficiently taken up and converted by the body of the animal to said output obtains a FCR-value lower than a food having a low uptake in the animal. Thus, lower FCR-values are preferred for most applications. In some sectors, feed efficiency, which is the output divided by the input (i.e. the inverse of FCR), is used.
as §1, §2, §3, §4, §5, §6, §7, §8

broiler chickens = settings: cited from earlier work
[8] = Treatment 1 (IS10), 1 mg IsoSteviol/kg BW in feed
[9] = Treatment 2 (IS13), 1.3 mg IsoSteviol/kg BW in feed
[10] = IG group (standard feed incl. standard dose of supplementary feed + isosteviol 1 mg/kg/day), 8 pigs
[11] = IPG group (standard feed + additional 10 w % supplementary feed + isosteviol 1 mg/kg/day), 9 pigs
[12] = IG group (isosteviol only, 1 mg/kg/day)
[13] = IPG group (additional 10 w % supplementary feed + isosteviol 1 mg/kg/day)

In the case of `C[C@@]12CC[C@@H]3[C@@](CC[C@H]4[C@@]3(C)CCC[C@@]4(C)C(=O)O)(CC1=O)C2` [isosteviol], the “meat (muscle) percentage / muscle/fat ratio” value (pigs [1]; IG group (isosteviol alone) vs control) was “very significant increase of the muscle weight; also recorded: increase”, the “meat (muscle) percentage / muscle/fat ratio” value (pigs [1]; IPG group (isosteviol + supplementary feed) vs control) was “increased their muscle/fat ratio to a significant degree; also recorded: increase” and the “weight gain versus negative control” value (piglets [2]; Treatment 1 (+Isosteviol), FIG. 10, p<0.0023) was “significant higher weight gain; also recorded: Observed relevant superiority, significant proven”. For the same molecule, the “Body weight [kg] Mean SD 10” value (piglets [2]; [8]) was 11.568 kg, the “Body weight [kg] Mean SD 21” value (piglets [2]; [8]) was 15.783 kg and the “Body weight [kg] Mean SD 42” value (piglets [2]; [8]) was 32.660 kg. For the same molecule, the “Body weight [kg] Median SD 10” value (piglets [2]; [8]) was 11.550 kg, the “Body weight [kg] Median SD 21” value (piglets [2]; [8]) was 15.900 kg and the “Body weight [kg] Median SD 42” value (piglets [2]; [8]) was 33.200 kg. The “weight gain versus negative control” value (piglets [2]; Treatment 2 (+Isosteviol), FIG. 11, p<0.0158) was “significant higher weight gain; also recorded: Observed relevant superiority, significant proven”, the “Body weight [kg] Mean SD 10” value (piglets [2]; [9]) was 11.574 kg and the “Body weight [kg] Mean SD 21” value (piglets [2]; [9]) was 15.558 kg. For the same molecule, the “Body weight [kg] Mean SD 42” value (piglets [2]; [9]) was 32.293 kg, the “Body weight [kg] Median SD 10” value (piglets [2]; [9]) was 11.500 kg and the “Body weight [kg] Median SD 21” value (piglets [2]; [9]) was 15.600 kg. The “Body weight [kg] Median SD 42” value (piglets [2]; [9]) was 32.000 kg, the “Body weight [kg] Mean SD 0” value (piglets [2]; [8]) was 7.868 kg and the “Body weight [kg] Median SD 0” value (piglets [2]; [8]) was 7.850 kg. For the same molecule, the “Body weight [kg] Mean SD 0” value (piglets [2]; [9]) was 7.865 kg, the “Body weight [kg] Median SD 0” value (piglets [2]; [9]) was 7.875 kg and the stool firmness (pigs [3]) was “more firm; also recorded: much firmer stool”. The “increase of yearly turnover in production vs CG group” value (pigs [4]; IG group, data not shown) was 0.1%, the “increase of yearly turnover rate in production vs CG group” value (pigs [4]; IPG group, FIG. 8) was “around 4.8%” and the “growth exceeding that of control group (CG)” value (pigs [5]; FIG. 1, Isosteviol and protein group (IPG) vs CG at index 100) was 4.0%. For the same molecule, the “growth exceeding that of control+protein group (CPG)” value (pigs [5]; FIG. 2, Isosteviol and protein group (IPG) vs CPG at index 100) was 5.8%, the “growth exceeding that of control group (CG)” value (pigs [5]; FIG. 3, Isosteviol group (IG) vs CG at index 100) was 0.8% and the “Average weight (kg) week 8” value (pigs [5]; [10]) was 99.50 kg. The “weight gain compared to the Control (CG) group” value (pigs [5]; IG group, FIG. 3, in words) was “clear increased weight gain”, the “Average weight (kg) week 8” value (pigs [5]; [11]) was 99.78 kg and the “weight gain compared to the control group (CG)” value (pigs [5]; IPG group, FIG. 1, in words) was “clear increased weight gain”. The “weight gain compared to the CPG group” value (pigs [5]; IPG group, FIG. 2, in words) was “clear increased weight gain”, the “Average weight (kg) start” value (pigs [5]; [10]) was 35.00 kg and the “Average weight (kg) start” value (pigs [5]; [11]) was 33.11 kg. For the same molecule, the “Net growth vs. CG group” value (pigs [5]; [12]) was 100.8, the “Net growth vs. CG group” value (pigs [5]; [13]) was 104.0 and the “Net growth vs. CPG group” value (pigs [5]; [12]) was 102.71. The “Net growth vs. CPG group” value (pigs [5]; [13]) was 105.80, the “Average weight (kg) Increase” value (pigs [5]; [12]) was 64.50 kg and the “Average weight (kg) Increase” value (pigs [5]; [13]) was 66.67 kg. The “appearance of pigs noted by the farmer (muscle to fat ratio)” value (pigs [6]; IPG group compared to the control group) was “leaner and more firmly meaty”, the “overall uptake of the feed (amount of generated manure)” value (pigs [6]; isosteviol added to feed (IPG) vs CPG group, FIG. 4) was “higher overall uptake of the feed” and the “decrease of the amount of nutritional ingredients in stool” value (pigs [6]; preliminary stool analysis, considering the quantity of manure discharged, data not shown) was “approx. 6%”. For the same molecule, the “Feed conversion ratio (FCR) versus negative control” value (piglets [7]; Treatment 1 (+Isosteviol), FIG. 12) was “significant decreased feed conversion ratio; also recorded: More than relevant superiority”, the “Feed Conversion Ratio (FCR) Mean SD 42” value (piglets [7]; [8]) was 1.399 and the “Feed Conversion Ratio (FCR) Median SD 42” value (piglets [7]; [8]) was 1.380. For the same molecule, the “Feed conversion ratio (FCR) versus negative control” value (piglets [7]; Treatment 2 (+Isosteviol), FIG. 13) was “significant decreased feed conversion ratio; also recorded: More than relevant superiority”, the “Feed Conversion Ratio (FCR) Mean SD 42” value (piglets [7]; [9]) was 1.393 and the “Feed Conversion Ratio (FCR) Median SD 42” value (piglets [7]; [9]) was 1.360.
In the case of `C=C1C[C@@]23CC[C@H]4[C@@](C)(CCC[C@@]4(C)C(=O)O[C@@H]4O[C@H](CO)[C@@H](O)[C@H](O)[C@H]4O)[C@@H]2CC[C@]1(O[C@@H]1O[C@H](CO)[C@@H](O)[C@H](O)[C@H]1O[C@@H]1O[C@H](CO)[C@@H](O)[C@H](O)[C@H]1O)C3` [stevioside], the “effect on the broilers” value (broiler chickens; fed orally to broiler chickens) is listed as “no positive effect” and the “abdominal fat content of the chicken” value (broiler chickens; in a diet for broilers) is listed as “significantly increased”.
